# Values quoted from earlier work as cited in PubChem BioAssay AID1259409 (Chemical Carcinogenesis Research Information System (CCRIS), 2018).
# System: rodent chemically induced tumor inhibition, incidence and multiplicity
# Assay: CCRIS tumor inhibitor studies
structure (smiles),measurement,setting,value
O=P(O)(O)OC1C(OP(=O)(O)O)C(OP(=O)(O)O)C(OP(=O)(O)O)C(OP(=O)(O)O)C1OP(=O)(O)O (stereo not given),"tumour outcome (control, treated, inhibition, significance)","Carcinogen: 2,2'-DIHYDROXY-DI-N-PROPYLNITROSAMINE, 53609-64-6, N-ETHYL-N-HYDROXYETHYLNITROSAMINE, 13147-25-6, 3,2'-DIMETHYL-4-AMINO-, Carcinogen: 2,2'-DIHYDROXY-DI-N-PROPYLNITROSAMINE, 53609-64-6, N-ETHYL-N-HYDROXYETHYLNITROSAMINE, 13147-25-6, 3,2'-DIMETHYL-4-AMINO-, Dose [Inhibitor]: 0, 2% IN DIET FOR 32 WK BEGINNING 1 WK POST CARCINOGEN TREATMENT (STUDY DURATION: 36 WK), Route [Inhibitor]: ORAL, Species: RAT, Strain/Sex: F344/MALE, Target Tissue: Type of Lesion: LUNG: CARCINOMA, Dose [Carcinogen]: 1000 MG/KG BW DHPN TWICE, 1500 MG/KG BW EHEN TWICE, 75 MG/KG BW 3 TIMES ADMINISTERED OVER FIRST 3 WK, Promoter: NONE USED","1/14 (7%), 3/12 (25%), -257%, not significant"
same,"tumour outcome (control, treated, inhibition, significance)","Carcinogen: 2,2'-DIHYDROXY-DI-N-PROPYLNITROSAMINE, 53609-64-6, N-ETHYL-N-HYDROXYETHYLNITROSAMINE, 13147-25-6, 3,2'-DIMETHYL-4-AMINO-, Carcinogen: 2,2'-DIHYDROXY-DI-N-PROPYLNITROSAMINE, 53609-64-6, N-ETHYL-N-HYDROXYETHYLNITROSAMINE, 13147-25-6, 3,2'-DIMETHYL-4-AMINO-, Dose [Inhibitor]: 0, 2% IN DIET FOR 32 WK BEGINNING 1 WK POST CARCINOGEN TREATMENT (STUDY DURATION: 36 WK), Route [Inhibitor]: ORAL, Species: RAT, Strain/Sex: F344/MALE, Target Tissue: Type of Lesion: THYROID GLAND: ADENOMA, Dose [Carcinogen]: 1000 MG/KG BW DHPN TWICE, 1500 MG/KG BW EHEN TWICE, 75 MG/KG BW 3 TIMES ADMINISTERED OVER FIRST 3 WK, Promoter: NONE USED","3/14 (21%), 3/12 (25%), -19%, not significant"
same,"tumour outcome (control, treated, inhibition, significance)","Carcinogen: 2,2'-DIHYDROXY-DI-N-PROPYLNITROSAMINE, 53609-64-6, N-ETHYL-N-HYDROXYETHYLNITROSAMINE, 13147-25-6, 3,2'-DIMETHYL-4-AMINO-, Carcinogen: 2,2'-DIHYDROXY-DI-N-PROPYLNITROSAMINE, 53609-64-6, N-ETHYL-N-HYDROXYETHYLNITROSAMINE, 13147-25-6, 3,2'-DIMETHYL-4-AMINO-, Dose [Inhibitor]: 0, 2% IN DIET FOR 32 WK BEGINNING 1 WK POST CARCINOGEN TREATMENT (STUDY DURATION: 36 WK), Route [Inhibitor]: ORAL, Species: RAT, Strain/Sex: F344/MALE, Target Tissue: Type of Lesion: URINARY BLADDER: CARCINOMA, Dose [Carcinogen]: 1000 MG/KG BW DHPN TWICE, 1500 MG/KG BW EHEN TWICE, 75 MG/KG BW 3 TIMES ADMINISTERED OVER FIRST 3 WK, Promoter: NONE USED","1/14 (7%), 2/12 (17%), -143%, not significant"
same,outcome,"Carcinogen: 2,2'-DIHYDROXY-DI-N-PROPYLNITROSAMINE, 53609-64-6, N-ETHYL-N-HYDROXYETHYLNITROSAMINE, 13147-25-6, 3,2'-DIMETHYL-4-AMINO-, Carcinogen: 2,2'-DIHYDROXY-DI-N-PROPYLNITROSAMINE, 53609-64-6, N-ETHYL-N-HYDROXYETHYLNITROSAMINE, 13147-25-6, 3,2'-DIMETHYL-4-AMINO-, Dose [Inhibitor]: 0, 2% IN DIET FOR 32 WK BEGINNING 1 WK POST CARCINOGEN TREATMENT (STUDY DURATION: 36 WK), Route [Inhibitor]: ORAL, Species: RAT, Strain/Sex: F344/MALE, Target Tissue: Type of Lesion: URINARY BLADDER: PAPILLOMA, Dose [Carcinogen]: 1000 MG/KG BW DHPN TWICE, 1500 MG/KG BW EHEN TWICE, 75 MG/KG BW 3 TIMES ADMINISTERED OVER FIRST 3 WK, Promoter: NONE USED","0/14 (0%), 6/12 (50%), -100%, p<0.01"
same,"tumour outcome (control, treated, inhibition, significance)","Carcinogen: 2,2'-DIHYDROXY-DI-N-PROPYLNITROSAMINE, 53609-64-6, N-ETHYL-N-HYDROXYETHYLNITROSAMINE, 13147-25-6, 3,2'-DIMETHYL-4-AMINO-, Carcinogen: 2,2'-DIHYDROXY-DI-N-PROPYLNITROSAMINE, 53609-64-6, N-ETHYL-N-HYDROXYETHYLNITROSAMINE, 13147-25-6, 3,2'-DIMETHYL-4-AMINO-, Dose [Inhibitor]: 0, 2% IN DIET FOR 32 WK BEGINNING 1 WK POST CARCINOGEN TREATMENT (STUDY DURATION: 36 WK), Route [Inhibitor]: ORAL, Species: RAT, Strain/Sex: F344/RAT, Target Tissue: Type of Lesion: LARGE INTESTINE: ADENOMA, Dose [Carcinogen]: 1000 MG/KG BW DHPN TWICE, 1500 MG/KG BW EHEN TWICE, 75 MG/KG BW 3 TIMES ADMINISTERED OVER FIRST 3 WK, Promoter: NONE USED","7/14 (50%), 5/12 (42%), 16%, not significant"
same,"tumour outcome (control, treated, inhibition, significance)","Carcinogen: 7,12-DIMETHYLBENZ(A)ANTHRACENE, 57-97-6, Dose [Inhibitor]: 0, 1 MG IN 100 µL ACETONE IMMEDIATELY AFTER CARCINOGEN DOSE 2/WK FOR 30 WK (STUDY DURATION: 30 WK), Route [Inhibitor]: DERMAL, Species: MOUSE, Strain/Sex: SWISS/FEMALE, Target Tissue: Type of Lesion: SKIN: TUMOR, Dose [Carcinogen]: 5 UG IN 100 µL ACETONE 2/WK FOR 30 WK","8/8 (100%), 4/14 (26%), 74%, not calculated"
same,"tumour outcome (control, treated, inhibition, significance)","Carcinogen: 7,12-DIMETHYLBENZ(A)ANTHRACENE, 57-97-6, Dose [Inhibitor]: 0, 5 MG IN 100 µL ACETONE IMMEDIATELY AFTER CARCINOGEN DOSE 2/WK FOR 30 WK (STUDY DURATION: 30 WK), Route [Inhibitor]: DERMAL, Species: MOUSE, Strain/Sex: SWISS/FEMALE, Target Tissue: Type of Lesion: SKIN: TUMOR, Dose [Carcinogen]: 5 UG IN 100 µL ACETONE 2/WK FOR 30 WK","8/8 (100%), 1/14 (6.6%), 93%, not calculated"
same,"tumour outcome (control, treated, inhibition, significance)","Carcinogen: 7,12-DIMETHYLBENZ(A)ANTHRACENE, 57-97-6, Dose [Inhibitor]: 0, 100 UG IN 100 µL ACETONE IMMEDIATELY AFTER CARCINOGEN DOSE 2/WK FOR 30 WK (STUDY DURATION: 30 WK), Route [Inhibitor]: DERMAL, Species: MOUSE, Strain/Sex: SWISS/FEMALE, Target Tissue: Type of Lesion: SKIN: TUMOR, Dose [Carcinogen]: 5 UG IN 100 µL ACETONE 2/WK FOR 30 WK","8/8 (100%), 5/13 (40%), 60%, not calculated"
same,"tumour outcome (control, treated, inhibition, significance)","Carcinogen: 7,12-DIMETHYLBENZ[A]ANTHRACENE [57-97-6], Dose [Inhibitor]: 2% IN DIET FOR 35 WK BEGINNING 1 WK POST LAST CARCINOGEN DOSE (STUDY DURATION: 35 WK), Route [Inhibitor]: ORAL, Species: RAT, Strain/Sex: SPRAGUE-DAWLEY/FEMALE, Target Tissue: Type of Lesion: MAMMARY GLAND: CARCINOMA, Dose [Carcinogen]: 50 MG/KG BW ONCE (STUDY DURATION: 36 WK), Promoter: NONE","14/15 (93%), 14/15 (93%), 0%, not significant"
same,"tumour outcome (control, treated, inhibition, significance)","Carcinogen: 7,12-DIMETHYLBENZ[A]ANTHRACENE [57-97-6], Dose [Inhibitor]: 2% IN DIET FOR 35 WK BEGINNING 1 WK POST LAST CARCINOGEN DOSE (STUDY DURATION: 35 WK), Route [Inhibitor]: ORAL, Species: RAT, Strain/Sex: SPRAGUE-DAWLEY/FEMALE, Target Tissue: Type of Lesion: MAMMARY GLAND: FIBROADENOMA, Dose [Carcinogen]: 50 MG/KG BW ONCE (STUDY DURATION: 36 WK), Promoter: NONE","3/15 (20%), 4/15 (27%), -35%, not significant"
